We go through one molecule from patent US20150018396A1, “PREVENTION AND TREATMENT OF RESPIRATORY INFECTION WITH PEROXISOME PROLIFERATOR ACTIVATOR RECEPTOR DELTA AGONIST” (PRESIDENT AND FELLOWS OF HARVARD COLLEGE, priority 2012, published 2015).

The subject of one test is alveolar macrophages. Put plainly: Fc-stimulated phagosomal ROS production ex vivo in isolated alveolar macrophages (FcOxyburst). The arrangement: species or system mouse. The conditions noted are these: wt and Ppar-δ mye−/− mice gavaged for 3 days. Here is the method:
(§1) Mice were infected with 5×10^5 CFU of S. pneumoniae. […] Twenty-four hours post-infection, lavage fluid was isolated and analyzed for bacterial counts. […] Mice were gavaged with GW501516 for three days. […] Alveolar macrophages were isolated and ROS was determined using FcOxyburst. Data are presented as mean±SEM. *p<0.05.
We next sought to explore the therapeutic potential of the Ppar-δ controlled phagosomal function in pathologies associated with infection. For this purpose, wt mice were infected with a higher dose of S. pneumoniae through nasal inhalation, which led to lethality in 75% of mice within 5 days post-injection (FIG. 5a). […]
Bacterial killing assays were used for in vitro bacterial killing^37,38. […] Colony forming units (CFU) were determined as a measure of bacterial survival. ROS assays were done using FcOxyburst (Invitrogen) according to manufacturers protocols and analyzed by fluorescence activated cell sorting (FACS). Phagocytosis and phagosome number were determined by FACS using Alexa Fluor 647 labeled heat killed S. pneumoniae^32. pH was determined as previously described^32. […] Macrophages were incubated with labeled bacteria and analyzed by FACS for FITC relative to Alexa Fluor 647 signal. ATP and lactate were measured using commercially available kits. […]

In test [1] the test system is Noxo1 promoter. Kind of test: Noxo1 promoter luciferase reporter in RAW macrophages. The format is cell-based. The conditions noted are these: RAW267.4 macrophages, luciferase reporter driven by 2 kb 5′-regulatory region, treated 12 hours. The method, then:
(§2) FIGS. 3a-3c show the transcriptional regulation of macrophage phagosomal function by Ppar-δ. FIGS. 3a and 3b show the expression of genes involved in NADPH oxidase complexes in cultured macrophages and alveolar macrophages, respectively. Gene expression was determined by real-time PCR. […] RAW264.7 macrophages were transfected with a luciferase reporter driven by the 2 kb 5′-regulatory region of the Noxo1 or Nox2 gene. […] Transfection was done in stably transformed wt and Ppar-δ^−/− macrophage cell lines. Data are presented as mean±SEM. *p<0.05.
(§3) To elucidate downstream targets of Ppar-δ mediating phagosomal ROS production, expression of genes involved in this process was analyzed in stably transformed wt and Ppar-δ^−/− macrophages and in alveolar lavage cells from wt and Ppar-δ^mye−/− mice after S. pneumoniae infection. […] To determine whether members of the NADPH complex are transcriptional targets of Ppar-δ, we generated luciferase reporter constructs driven by 2 kb upstream promoters of Noxo1 and Nox2. […] Indeed, we found the expression of Ppar-δ and its known target Slc25a20 increased after bacteria infection (FIG. 7a).
(Reporter assays use an easily measured gene product as a stand-in for the process of interest.)

A further test has as its system S. pneumoniae. Put plainly: Survival in a mouse model of pneumonia (intranasal S. pneumoniae infection). The class given is in vivo. The settings on record: wt C57BL/6 mice, 2 mg kg^−1 per day by gavage, 5×10^5 CFU S. pneumoniae. The method, then: as §1
We next sought to explore the therapeutic potential of the Ppar-δ controlled phagosomal function in pathologies associated with infection. For this purpose, wt mice were infected with a higher dose of S. pneumoniae through nasal inhalation, which led to lethality in 75% of mice within 5 days post-injection (FIG. 5a). […] Taken together, our data implicate the potential use of synthetic Ppar-δ agonists to improve the outcomes of bacteria infection, such as pneumonia.
Ppar-δ floxed animals were generated as described previously^33,34. Ppar-δ mice were crossed to lysozyme cre mice (Jackson laboratory) to generate Ppar-δ^mye−/− mice. Ppar-δ^fl/fl mice were used as wt controls. All mice were maintained on a C57BL/6 background. Mice used for survival studies in FIG. 5 were C57BL/6 mice purchased from Jackson Laboratory. Bone marrow from CSS-17 mice was provided by Dr. Colleen Croniger (Case Western Reserve University). For in vivo killing assays, mice were anesthetized with a ketamine/xylazine solution and infected intranasally with 10^6 CFU S. pneumoniae. […]

In the next test the test system is Ppar-δ. Kind of test: Gene expression analyses of Balf cells by real-time PCR. The class given is in vivo, mouse. The settings on record: mice gavaged for three days. Here is the method:
as §1
For gene expression analyses, we determined relative expression levels using SYBR Green-based real-time qPCR reactions. We used 36B4 expression levels for normalization. For in vitro analyses of infected macrophages, S. pneumoniae conjugated to magnetic beads were used during infection (see Bacterial Growth and Manipulation for details). Cells were infected for 1 hr with conjugated beads. At the end of the experiment, a magnet was used to separate cells that contained intracellular magnetic bacteria. These cells were used for expression analyses.
On the technique in general: In qPCR the cycle at which signal appears reflects the starting amount.

In test [2] the test system is Noxo1 promoter. Kind of test: Noxo1 promoter luciferase reporter in stably transformed wt and Ppar-δ−/− macrophage cell lines. The settings on record: Ppar-δ−/− macrophage cell lines vs wt. The format is cell-based, mouse. Here is the method:
as §2, §3
Bone marrow-derived macrophages were differentiated in L929 conditioned media as previously described^14. Stables lines were created from bone marrow of Ppar-δ^mye−/− and control mouse lines using a CreJ2 viral system^35,36. […]

Molecules are shown by their SMILES. Entries after “also recorded” stand apart in the source; their conditions may differ.

As to `Cc1cc(SCc2sc(-c3ccc(C(F)(F)F)cc3)nc2C)ccc1OCC(=O)O` [GW501516], the “phagosome ROS production in alveolar macrophages” value with alveolar macrophages was “increased ROS production in a Ppar-δ dependent manner; also recorded: increases phagosome ROS production”. Further, the “promoter activity of Noxo1” value in the test on Noxo1 promoter [1] is “increased; also recorded: able to increase activity of the promoter of Noxo1”. Further, the onset of death entry in the test on S. pneumoniae was “delayed onset of death”. Besides, the “survival compared to vehicle-treated mice” value in the test with S. pneumoniae (3 days prior to and every other day after infection) is given as “significant improvement in survival”. Further, in the test with Ppar-δ, the “expression of Ppar-δ in Balf cells” value is “increase”, the “expression of Ppar-δ target gene Slc25a20 in Balf cells” value was “increase”, the “level of Noxa1 mRNA in Balf cells” value is “increased” and the “level of Noxo1 mRNA in Balf cells” value is “increased”. Also, the “ability to induce Noxo1 promoter activity in cells lacking Ppar-δ” value in the test with Noxo1 promoter [2] is “lost”.
